Read-outs that look alike come from different tables or passages of the source.
Tests used:
[1] = Solubility in water and organic solvents; type: physicochemical; conditions: qualitative, solvents named
domestic flies [2] = assay: Insecticidal activity, laboratory test in gauze boxes; type: in vivo; conditions: 0.25% solution in 5% aqueous glucose solution; death rate estimated in 48 - 72 hours
Experimental: An insecticidal composition based thereon, which was a 0.25% solution of this compound in a 5% aqueous glucose solution, was prepared. The laboratory and large-scale tests of the activity of an insecticidal composition of the invention was conducted on domestic flies. for laboratory tests into the gauze-made boxes (10x10 cm, 6 boxes), there were placed 6-7-day flies of both sexes by 50 individuals per each box. Into 5 boxes there were placed Petri dishes containing the insecticidal composition of the invention. The death rate of flies was estimated-in 48 - 72 hours. A Petri dish containing a 5% aqueous solution of glucose was placed into the control box. The insecticidal activity of the composition, according to the invention, was tested in comparison with a known insecticidal composition containing 0,0-dimethyl-/1-hydroay-2,2-trichloroethyl/phosphonate.

domestic flies [3] = assay: Insecticidal activity, large-scale test in living and industrial premises; type: in vivo; conditions: 0.25% solution with 5% glucose solution, 2-3 dishes per 20 m2; 72 hours
Experimental: The large-scale tests of the activity of the insecticidal composition, according to the invention, was conducted on domestic flies in living and industrial premises. Petri dishes containing a 0.25% aqueous solution of the insecticide, according to the invention, added with a 5% glucose solution, were put at a rate of 2-3 dishes per 20 m2. The .activity of the composition of the invention was estimated by a direct count of dead insects in 72 hours or by using the adhesive tapes, counting the number of flies on the tape prior and after carrying out the test.

influenza A virus [4] = test system: influenza A virus
hepatitis B virus [5] = test system: hepatitis B virus
Fusarium moniliforme [6] = assay: Fungicidal activity, laboratory test on potato-dextrose agar; type: cell-based; conditions: 0.01 % by mass of active principle
Experimental: (§1) Based on the compound, a fungicidal composition was prepared in the form of a 0.01% solution thereof in distilled water. A fungicidal activity of the compound, according to the invention, was tested for inhibition of vegetative fungi growth such as Fusarium oxyporum, Fusarium moniliforme, Botrytis cinerea, Fusarium culmorum, Diplodia zeae, Rhyzoctonia violacea, Verticillium alboartrum, Verturia inaequalis, Rhyzoctonia aderholdii affecting potato, sugar beet, cotton seeds. The tests were conducted either in laboratory or in field conditions. For tests, the composition of the invention containing-0.01 % by mass of an active principle was introduced into Petri dishes with a nutrient medium, specifically, potato-dextrose agar. The phytopathogenic fungi mycelium was plated on the Petri dishes with this agar culture. The phytopathogenic fungi were plated on control dishes with agar culture without adding the composition of the invention. The fungicidal action of the composition, according to the invention, was tested in comparison with the known fungicidal composition based on 2,3-dichloronaphthoquinone-1,4 (phygon), zinc N,N'-ethylene-bis-(dithiocarbamate) (zineb) and thiuram.

Verturia inaequalis [7] = assay: as above; type: cell-based; conditions: 0.01 % by mass of active principle
Experimental: as §1

Fusarium oxysporum [8] = assay: as above; type: cell-based; conditions: 0.01 % by mass of active principle
Experimental: as §1

Diplodia zeae [9] = assay: as above; type: cell-based; conditions: 0.01 % by mass of active principle
Experimental: as §1

Rhyzoctonia violacea [10] = assay: as above; type: cell-based; conditions: 0.01 % by mass of active principle
Experimental: as §1

Fusarium culmorum [11] = assay: as above; type: cell-based; conditions: 0.01 % by mass of active principle
Experimental: as §1

Verticillium albo-atrum [12] = assay: as above; type: cell-based; conditions: 0.01 % by mass of active principle
Experimental: as §1

Botrytis cinerea [13] = assay: as above; type: cell-based; conditions: 0.01 % by mass of active principle
Experimental: as §1

Rhyzoctonia aderholdii [14] = assay: as above; type: cell-based; conditions: 0.01 % by mass of active principle
Experimental: as §1

Verticillium albo-atrum [15] = assay: Fungicidal activity, field test on sprayed potato plots; type: in vivo
Rhyzoctonia violacea [16] = assay: as above; type: in vivo
Fusarium moniliforme [17] = assay: as above; type: in vivo
Experimental: (§2) In the field conditions potato plantations of 5 m^2 in size affected by Fusarium oxysporem, Fusarium moniliforme, Betrytis cinerea, Fusarium culmorum, Diplodia Verturia inaequalis, Rhyzoctonia aderholdii were sprayed by a fungicidal composition of the. invention.
(§3) For comparison, a similar spraying of the affected potato-plots was carried out using a. known fungicidal compositions.

Verturia inaequalis [18] = assay: as above; type: in vivo
Experimental: as §2, §3

Fusarium oxysporum [19] = assay: as above; type: in vivo
Experimental: as §2, §3

Diplodia zeae [20] = assay: as above; type: in vivo
Experimental: as §2, §3

Fusarium culmorum [21] = assay: as above; type: in vivo
Experimental: as §2, §3

Botrytis cinerea [22] = assay: as above; type: in vivo
Experimental: as §2, §3

Rhyzoctonia aderholdii [23] = assay: as above; type: in vivo
Experimental: as §2, §3

hepatitis B virus [24] = assay: Virucidal activity, suspension method under protein loading, counter-current immunoelectrophoresis
influenza A virus [25] = assay: microbe, parasite or virus in culture; set-up: species or system strain of influenza A1 virus
poliomyelitis virus = assay: microbe, parasite or virus in culture; type: cell-based, poliomyelitis-II virus

O=C(N=P(OCCCl)(OCCCl)OCCCl)c1ccccc1 [Example 1, tris-(2-chloroethoxy)phosphazobenzoyl]
solubility [1]: soluble in water, alcohols, toluene
Death of flies, % Tests laboratory (domestic flies [2]): 86%
Death of flies, % Tests large-scale (domestic flies [3]): 85%

CC(C)(OP(=NC(=O)c1ccccc1)(OC(C)(C)C(Cl)(Cl)Cl)OC(C)(C)C(Cl)(Cl)Cl)C(Cl)(Cl)Cl [Example 2, tris-(dimethyl-2,2,2-trichloroethoxy)phosphazobenzoyl]
solubility [1]: soluble in water, alcohols, acetone, benzene, toluene
Death of flies, % Tests laboratory (domestic flies [2]): 90%
Death of flies, % Tests large-scale (domestic flies [3]): 88%

O=C(N=P(OC[C@@H](NC(=O)C(Cl)Cl)[C@H](O)c1ccc([N+](=O)[O-])cc1)(OC[C@@H](NC(=O)C(Cl)Cl)[C@H](O)c1ccc([N+](=O)[O-])cc1)OC[C@@H](NC(=O)C(Cl)Cl)[C@H](O)c1ccc([N+](=O)[O-])cc1)c1ccccc1 [Example 4, tris-d/-/-threo-3-para nitrophenyl--2-dichloroacetamido-3-hydroxypropoxy/phosphazobenzoyl]
inhibition of viral antigen titers, Influenza A virus (influenza A virus [4]; 1% solution): 100
inhibition of viral antigen titers, Hepatitis B virus (hepatitis B virus [5]; 1% solution in 0.85% sodium chloride, exposure 5, 30, 60 minutes): 100

O=C(N=P(Nc1ccc(Cl)cc1[N+](=O)[O-])(Nc1ccc(Cl)cc1[N+](=O)[O-])Nc1ccc(Cl)cc1[N+](=O)[O-])c1ccc(Br)cc1 [Example 6, tris--(para-chloro -ortho-nitroanilido)phosphazo-para-bromobenzoyl]
solubility [1]: soluble in water, acetone, alcohols, benzene
Inhibition of colony growth of phyto-pathogenic fungi, % Fusarium moniliforme laboratory (Fusarium moniliforme [6]): 100%
Inhibition of colony growth of phytopathogenic fungi,% Verturia inaequalis laboratory (Verturia inaequalis [7]): 100%
Inhibition of colony growth of phyto-pathogenic fungi, % Fusarium oxysporum laboratory (Fusarium oxysporum [8]): 100%
Inhibition of colony growth of phytopatogenic,fungi,% Diplidia zeae laboratory (Diplodia zeae [9]): 100%
Inhibition of colony growth of phytopatogenic,fungi,% Rhyzoctonia violacea laboratory (Rhyzoctonia violacea [10]): 100%
Inhibition of colony growth of phytopatogenic,fungi,% Fusarium culmorum laboratory (Fusarium culmorum [11]): 70%
Inhibition of colony growth of phytopathogenic fungi,% Verticillium albo-atrum laboratory (Verticillium albo-atrum [12]): 100%
Inhibition of colony growth of phyto-pathogenic fungi, % Botrytis cinerea laboratory (Botrytis cinerea [13]): 100%
Inhibition of colony growth of phytopathogenic fungi,% Rhyzoctonia aderholdii laboratory (Rhyzoctonia aderholdii [14]): 100%
Inhibition of colony growth of phytopathogenic fungi,% Verticillium albo-atrum field (Verticillium albo-atrum [15]): 100%
Inhibition of colony growth of phytopatogenic,fungi,% Rhyzoctonia violacea field (Rhyzoctonia violacea [16]): 100%
Inhibition of colony growth of phyto-pathogenic fungi, % Fusarium moniliforme field (Fusarium moniliforme [17]): 100%
Inhibition of colony growth of phytopathogenic fungi,% Verturia inaequalis field (Verturia inaequalis [18]): 100%
Inhibition of colony growth of phyto-pathogenic fungi, % Fusarium oxysporum field (Fusarium oxysporum [19]): 100%
Inhibition of colony growth of phytopatogenic,fungi,% Diplidia zeae field (Diplodia zeae [20]): 100%
Inhibition of colony growth of phytopatogenic,fungi,% Fusarium culmorum field (Fusarium culmorum [21]): 69%
Inhibition of colony growth of phyto-pathogenic fungi, % Botrytis cinerea field (Botrytis cinerea [22]): 100%
Inhibition of colony growth of phytopathogenic fungi,% Rhyzoctonia aderholdii field (Rhyzoctonia aderholdii [23]): 100%

O=C1C(Cl)=C(Cl)C(=O)c2ccccc21 [phygon, 2,3-dichloronaphthoquinone-1,4]
Inhibition of colony growth of phyto-pathogenic fungi, % Fusarium moniliforme laboratory (Fusarium moniliforme [6]): 35%
Inhibition of colony growth of phytopathogenic fungi,% Verturia inaequalis laboratory (Verturia inaequalis [7]): 58%
Inhibition of colony growth of phyto-pathogenic fungi, % Fusarium oxysporum laboratory (Fusarium oxysporum [8]): 35%
Inhibition of colony growth of phytopatogenic,fungi,% Diplidia zeae laboratory (Diplodia zeae [9]): 71%
Inhibition of colony growth of phytopatogenic,fungi,% Rhyzoctonia violacea laboratory (Rhyzoctonia violacea [10]): 34%
Inhibition of colony growth of phytopatogenic,fungi,% Fusarium culmorum laboratory (Fusarium culmorum [11]): 57%
Inhibition of colony growth of phytopathogenic fungi,% Verticillium albo-atrum laboratory (Verticillium albo-atrum [12]): 63%
Inhibition of colony growth of phyto-pathogenic fungi, % Botrytis cinerea laboratory (Botrytis cinerea [13]): 38%
Inhibition of colony growth of phytopathogenic fungi,% Rhyzoctonia aderholdii laboratory (Rhyzoctonia aderholdii [14]): 54%
Inhibition of colony growth of phytopathogenic fungi,% Verticillium albo-atrum field (Verticillium albo-atrum [15]): 66%
Inhibition of colony growth of phytopatogenic,fungi,% Rhyzoctonia violacea field (Rhyzoctonia violacea [16]): 33%
Inhibition of colony growth of phyto-pathogenic fungi, % Fusarium moniliforme field (Fusarium moniliforme [17]): 32%
Inhibition of colony growth of phytopathogenic fungi,% Verturia inaequalis field (Verturia inaequalis [18]): 61%
Inhibition of colony growth of phyto-pathogenic fungi, % Fusarium oxysporum field (Fusarium oxysporum [19]): 30%
Inhibition of colony growth of phytopatogenic,fungi,% Diplidia zeae field (Diplodia zeae [20]): 81%
Inhibition of colony growth of phytopatogenic,fungi,% Fusarium culmorum field (Fusarium culmorum [21]): 45%
Inhibition of colony growth of phyto-pathogenic fungi, % Botrytis cinerea field (Botrytis cinerea [22]): 32%
Inhibition of colony growth of phytopathogenic fungi,% Rhyzoctonia aderholdii field (Rhyzoctonia aderholdii [23]): 55%

O=S(=O)(NCl)c1ccccc1.[Na] [sodium-N-chloro-benzene sulf-amide, sodium N-chlorobenzene sulphonamide]
inhibition of viral antigen titers, Influenza A virus (influenza A virus [4]): 50
killing at 1 % (hepatitis B virus [24]; 0.25 h, read-out: Death of viruses (%) under exposure, Hepatitis B, 15 min): 0%
killing at 1 % (hepatitis B virus [24]; 0.5 h, read-out: Death of viruses (%) under exposure, Hepatitis B, 30 min): 12.5%
killing at 1 % (hepatitis B virus [24]; 1 h, read-out: Death of viruses (%) under exposure, Hepatitis B, 60 min): 25%
killing at 1 % (influenza A virus [25]; 0.25 h, read-out: Death of viruses (%) under exposure, Influenza A, 15 min): 0%
killing at 1 % (influenza A virus [25]; 0.5 h, read-out: Death of viruses (%) under exposure, Influenza A, 30 min): 12.5%
killing at 1 % (influenza A virus [25]; 1 h, read-out: Death of viruses (%) under exposure, Influenza A, 60 min): 25%
killing at 1 % (poliomyelitis virus; 10 min, read-out: Death of viruses (%) under exposure, Poliomyelitis, 10 min): 0%
killing at 1 % (poliomyelitis virus; 0.5 h, read-out: Death of viruses (%) under exposure, Poliomyelitis, 30 min): 12.5%
killing at 1 % (poliomyelitis virus; 1 h, read-out: Death of viruses (%) under exposure, Poliomyelitis, 60 min): 25%
inhibition of viral antigen titers, Hepatitis B virus (hepatitis B virus [5]): 50

S=C([S-])NCCNC(=S)[S-].[Zn+2] [zineb, zinc N,N'-ethylene-bis-(dithiocarbamate)]
Inhibition of colony growth of phyto-pathogenic fungi, % Fusarium moniliforme laboratory (Fusarium moniliforme [6]): 60%
Inhibition of colony growth of phytopathogenic fungi,% Verturia inaequalis laboratory (Verturia inaequalis [7]): 100%
Inhibition of colony growth of phyto-pathogenic fungi, % Fusarium oxysporum laboratory (Fusarium oxysporum [8]): 58%
Inhibition of colony growth of phytopatogenic,fungi,% Diplidia zeae laboratory (Diplodia zeae [9]): 100%
Inhibition of colony growth of phytopatogenic,fungi,% Rhyzoctonia violacea laboratory (Rhyzoctonia violacea [10]): 100%
Inhibition of colony growth of phytopatogenic,fungi,% Fusarium culmorum laboratory (Fusarium culmorum [11]): 57%
Inhibition of colony growth of phytopathogenic fungi,% Verticillium albo-atrum laboratory (Verticillium albo-atrum [12]): 80%
Inhibition of colony growth of phyto-pathogenic fungi, % Botrytis cinerea laboratory (Botrytis cinerea [13]): 100%
Inhibition of colony growth of phytopathogenic fungi,% Rhyzoctonia aderholdii laboratory (Rhyzoctonia aderholdii [14]): 100%
Inhibition of colony growth of phytopathogenic fungi,% Verticillium albo-atrum field (Verticillium albo-atrum [15]): 78%
Inhibition of colony growth of phytopatogenic,fungi,% Rhyzoctonia violacea field (Rhyzoctonia violacea [16]): 100%
Inhibition of colony growth of phyto-pathogenic fungi, % Fusarium moniliforme field (Fusarium moniliforme [17]): 62%
Inhibition of colony growth of phytopathogenic fungi,% Verturia inaequalis field (Verturia inaequalis [18]): 98%
Inhibition of colony growth of phyto-pathogenic fungi, % Fusarium oxysporum field (Fusarium oxysporum [19]): 59%
Inhibition of colony growth of phytopatogenic,fungi,% Diplidia zeae field (Diplodia zeae [20]): 100%
Inhibition of colony growth of phytopatogenic,fungi,% Fusarium culmorum field (Fusarium culmorum [21]): 54%
Inhibition of colony growth of phyto-pathogenic fungi, % Botrytis cinerea field (Botrytis cinerea [22]): 98%
Inhibition of colony growth of phytopathogenic fungi,% Rhyzoctonia aderholdii field (Rhyzoctonia aderholdii [23]): 100%
